How the values were obtained:
[1] = tested on: Jatropha curcas somatic embryos / somatic embryogenic calli; settings: TE7, AGL1 pST2eGFP
Method: Embryogenic cell lines, for example, JS4 cell line, which was derived from a zygotic embryo of an Indonesian Jatropha curcas collection, were subcultured every week by transferring about 3 g of the cell mass to 20 ml J20P medium. 3-5 days after subculture, the embryogenic calli cell mass was collected.
Co-culture plates were made by pouring about 30 ml JIM2H solid medium to each 90 mm Petri dish. Alternatively, 3-4 sheets of cellulose filter paper can be soaked with JIM2H liquid medium before placing into a 90 mm Petri dish. One sheet of 82 mm Hybond N membrane was over-laid to the medium-soaked cellulose filter paper or solid JIM2H medium. About 0.75 g embryogenic calli was mixed with 200 ul Agrobacterium cells on the membrane. After one hour incubation at room temperature, excess liquid medium containing the Agrobacterium cells was removed. The plates were capped, sealed with 3M tape and incubated at 24° C. with dim light for 2-3 days.
Fresh colonies of AGL2 or AGL3 harboring pCambia1305.1 were inoculated into 30 ml LB medium that had been supplemented with 25 mg/l rifampicin and 50 mg/l kanamycin. Cells were cultured at 28° C., 200-230 RPM until OD600 reached 0.8-2.0. […]
In about 3 weeks, the embryos were transferred to G35-2 medium with 10 mg/l hygromycin. […] Rooted plantlets were ready for planting in soil in 2-3 weeks. […]

[2] = tested on: Somatic embryogenic calli from 4 different cell lines; settings: DPI at about 10 μM; AGL2(pCambia1305.1); LMP Bd2 embedding; two months selection; average of four cell lines
Method: The co-culture medium JIM2 was supplemented with either 1 μM diphenyl iodonium (DPI), 5 μM DPI or a mixture of antioxidants with a final concentration of 1 mM Na-thiosulfate, 8.8 mM L-cysteine and 1 mM dithiothreitol (DTT). Hygromycin resistant somatic embryos were scored after two months selection. The number of somatic embryos derived from co-culture with DPI-free JIM2 (CK) was set at 100 in each cell line and the relative number of somatic embryos in other co-culture conditions was calculated by dividing the actual number by that of CK.
Somatic embryogenic calli from 4 different cell lines were co-cultured with AGL2(pCambia1305.1) and selection was done by the LMP Bd2 embedding method. The co-culture medium JIM2 was supplemented with either 1 μM DPI, 5 μM DPI or a mixture of antioxidants with a final concentration of 1 mM Na-thiosulfate, 8.8 mM L-cysteine and 1 mM DTT. Hygromycin resistant somatic embryos were scored after two months selection. In transformation using each cell line, the number of somatic embryos derived from co-culture with DPI-free JIM2 (CK) was set at 100 and relative number of somatic embryos in other co-culture conditions was calculated by dividing the actual number by that of CK.

[3] = tested on: Soybean embryogenic suspension culture (derived Peking 18); settings: 1 μM DPI in co-culture medium; pre-induced AGL1(pCambia1305.1); 2.5 day at 24° C.; 10 mg/l hygromycin selection; control about 40%
Method: Soybean embryogenic suspension culture (derived Peking 18) was co-cultured for 2.5 day at 24° C. with pre-induced AGL1(pCambia1305.1) on nylon membrane, which was placed on top of solid medium (1M with 20 mg/l 2,4-D and B5 vitamins) that was supplemented with 1 μM DPI or 1 mM Na-thiosulfate, 8.8 mM L-cysteine and 1 mM DTT. After selection with 10 mg/l hygromycin, the calli clumps were stained with X-gluc.

[4] = tested on: Embryogenic calli; test: X-gluc staining of calli immediately after 53 hours co-culture; type: cell-based, Jatropha curcas; settings: AS 200 μM, pCambia1305.1 bar
Text: The calli were immediately stained with X-gluc and photographed.
The calli were immediately stained with X-gluc.

NC[C@H]1O[C@H](O[C@H]2[C@H](O)[C@@H](O[C@H]3O[C@H](CO)[C@@H](O)[C@H](N)[C@H]3O)[C@H](N)C[C@@H]2N)[C@H](O)[C@@H](O)[C@@H]1O [Kan, kanamycin]
Kan selection concentration found OK ([1]; Kan 0, 25, 50 and 80 mg/l tested, SE on solid medium): 50-80 mg/l OK, heavy

c1ccc2c(c1)[I+]c1ccccc1-2 [DPI, diphenylene iodonium]
Improvement of transformation efficiency (relative number of hygromycin resistant somatic embryos vs DPI-free JIM2) [2]: more than 2 folds
Effect of DPI on explants ([1]; liquid medium SE): DPI caused no damage on
calli clumps showing GUS staining [3]: more than 80%

COc1cc(C(C)=O)cc(OC)c1O [AS, acetosyringone]
Effect of AS on transformation efficiency in AGL2 [4]: further boosted transformation efficiency
